Where “and” joins values, the source holds several entries; their conditions need not be identical. Identical values can stand only once.
Assays:
Assay type in all cases: cell-based
[1] = system: Acinetobacter baumannii (ATCC #BAA-747); experiment: Skin sample infection assay, 3 hours infection, bioburden after gNO; settings: 1% gNO at 1 ATM (14.695 psi) for 90 minutes, flow rate 0.1 liters/minute; skin samples infected for 3 hours; FIG. 4
Procedure: (§1) FIG. 4 is a graph illustrating the effects of NO treatment on bioburden using an infection assay, after three hours of infection, according to an embodiment of the present disclosure. Skin samples infected for 3 hours with Staphylococcus, MRSA, Acinetobacter or Pseudomonas and subsequently exposed to 1% gNO at 1 ATM (14.695 psi) for 90 minutes at a flow rate of 0.1 liters/minute. Staphylococcus aureus, subspecies aureus Rosenbach (ATCC #12600); Staphylococcus aureus, subspecies aureus Rosenbach (ATCC #33591), methicillin-resistant strain of Staphylococcus aureus, phage type 92; Acinetobacter baumannii (ATCC #BAA-747); and Pseudomonas aeruginosa (ATTC #BAA-47). Control=infected, untreated tissue. Three sets of triplicates were performed per experiment.

[2] = system: MRSA, methicillin-resistant strain of Staphylococcus aureus (ATCC #33591); experiment: as above; settings: 1% gNO at 1 ATM (14.695 psi) for 90 minutes, flow rate 0.1 liters/minute; skin samples infected for 3 hours; FIG. 4
Procedure: as §1

[3] = system: Pseudomonas aeruginosa (ATTC #BAA-47); experiment: as above; settings: 1% gNO at 1 ATM (14.695 psi) for 90 minutes, flow rate 0.1 liters/minute; skin samples infected for 3 hours; FIG. 4
Procedure: as §1

[4] = system: Staphylococcus aureus, subspecies aureus Rosenbach (ATCC #12600); experiment: as above; settings: 1% gNO at 1 ATM (14.695 psi) for 90 minutes, flow rate 0.1 liters/minute; skin samples infected for 3 hours; FIG. 4
Procedure: as §1

[5] = system: S. aureus; experiment: Colony counts after pressurized gNO, 24 hours infection, Franz cell (3-Ring) or Leg Device; settings: 1% gNO after 24 hours of infection
Procedure: Experiments were also conducted to determine the infection-reducing capability of gNO administration at various pressures below 1.0 ATM (14.695 psi) (independent of and in addition to the pressure applied by the external environment) using both a Franz cell tissue culture device (i.e., 3-Ring) and a portable gNO deliver device (i.e., Leg Device). The results of one set of experiments are illustrated below in Table 1. gNO was administered at a 1% concentration after 24 hours of infection with S. aureus. Flow Rates (cm^3/min or cc) varied from about 100 to about 1500, Purge Flow (liters/min or LPM) varied from about 0.1 to about 1.5, and gNO Exposure Time varied between about 45 minutes to about 105 minutes among the different treatment groups and controls. Colony counts (log CFU) were performed at various dilutions, which are represented in the last eight columns labeled 0, 1×10^−1 through 1×10^−7 (“0” indicates no dilution).

[6] = system: cells; experiment: MTT assay of cell viability after gNO administration; settings: pressurized gNO at about 0.15 ATM (2.2 psi) for about 105 minutes
Procedure: Additionally, MTT assays were performed to assess cell viability after gNO administration. MTT assays are colorimetric-based assays used to assess cell viability as a function of color variation. As illustrated below in Table 2, cell viability after the administration of pressurized gNO at about 0.15 ATM (2.2 psi) for about 105 minutes varied from about 40%-50%.

[7] = Trial 0.15 ATM, 3-Ring, purge flow 0.1 LPM, flow rate 100 cc, 0.15 ATM, 105 min
[8] = Trial 0.25 ATM, 3-Ring, purge flow 0.1 LPM, flow rate 100 cc, 0.25 ATM, 90 min
[9] = Trial 0.5 ATM, 3-Ring, purge flow 0.1 LPM, flow rate 100 cc, 0.5 ATM, 90 min
[10] = Trial 0.5 ATM, Leg Device, purge flow 1.0 LPM, flow rate 500 cc, 0.5 ATM, 45 min
[11] = Trial 9 attempt, 3-Ring, purge flow 0.1 LPM, flow rate 100 cc, 0.25 ATM, 90 min
[12] = Trial Calf, Leg Device, purge flow 0.1 LPM, flow rate 100 cc, 0.5 ATM, 90 min
[13] = Trial Heel, Leg Device, purge flow 0.1 LPM, flow rate 100 cc, 0.5 ATM, 90 min
[14] = Trial Leg 1, Leg Device, purge flow 1.5 LPM, flow rate 1500 cc, 1 ATM, 90 min
[15] = Trial Leg 2, Leg Device, purge flow 1.5 LPM, flow rate 100 cc, 0.5 ATM, 90 min
[16] = Trial Leg purge, Leg Device, purge flow 0.5 LPM, flow rate 100 cc, 0.25 ATM, 90 min
[17] = Trial Toe, Leg Device, purge flow 0.1 LPM, flow rate 100 cc, 0.5 ATM, 90 min
[18] = Trial d Pressure, Leg Device, purge flow 0.1 LPM, flow rate 100 cc, 0.5 ATM, 45 min

[N]=O [gNO, Nitric Oxide]
total kill: Reduction of bioburden (summary of Table 1) ([5]; pressures as low as about 0.15 ATM (2.2 psi), exposure times of about 105 minutes)
nearly completely eradicated: Reduction of bioburden [1] | Reduction of bioburden [2] | Reduction of bioburden [3]
TNTC: Colony counts, 0 (no dilution) [5, 11] | Colony counts, 1 × 10−1 dilution [5, 11] | Colony counts, 1 × 10−2 dilution [5, 11] | Colony counts, 0 (no dilution) [5, 18] | Colony counts, 1 × 10−1 dilution [5, 18] | Colony counts, 1 × 10−2 dilution [5, 18] | Colony counts, 1 × 10−3 dilution [5, 18]
0 log CFU: Colony counts, 1 × 10−5 dilution [5, 7] | Colony counts, 1 × 10−6 dilution [5, 7] | Colony counts, 1 × 10−7 dilution [5, 7] | Colony counts, 1 × 10−5 dilution [5, 8] | Colony counts, 1 × 10−6 dilution [5, 8] | Colony counts, 1 × 10−7 dilution [5, 8] | Colony counts, 1 × 10−2 dilution [5, 9] | Colony counts, 1 × 10−3 dilution [5, 9] | Colony counts, 1 × 10−4 dilution [5, 9] | Colony counts, 1 × 10−5 dilution [5, 9] | Colony counts, 1 × 10−6 dilution [5, 9] | Colony counts, 1 × 10−7 dilution [5, 9] | Colony counts, 0 (no dilution) [5, 10] | Colony counts, 1 × 10−1 dilution [5, 10] | Colony counts, 1 × 10−2 dilution [5, 10] | Colony counts, 1 × 10−3 dilution [5, 10] | Colony counts, 1 × 10−4 dilution [5, 10] | Colony counts, 1 × 10−5 dilution [5, 10] | Colony counts, 1 × 10−6 dilution [5, 10] | Colony counts, 1 × 10−7 dilution [5, 10] | Colony counts, 0 (no dilution) [5, 12] | Colony counts, 1 × 10−1 dilution [5, 12] | Colony counts, 1 × 10−2 dilution [5, 12] | Colony counts, 1 × 10−3 dilution [5, 12] | Colony counts, 1 × 10−4 dilution [5, 12] | Colony counts, 1 × 10−5 dilution [5, 12] | Colony counts, 1 × 10−6 dilution [5, 12] | Colony counts, 1 × 10−7 dilution [5, 12] | Colony counts, 0 (no dilution) [5, 13] | Colony counts, 1 × 10−1 dilution [5, 13] | Colony counts, 1 × 10−2 dilution [5, 13] | Colony counts, 1 × 10−3 dilution [5, 13] | Colony counts, 1 × 10−4 dilution [5, 13] | Colony counts, 1 × 10−5 dilution [5, 13] | Colony counts, 1 × 10−6 dilution [5, 13] | Colony counts, 1 × 10−7 dilution [5, 13] | Colony counts, 0 (no dilution) [5, 14] | Colony counts, 1 × 10−1 dilution [5, 14] | Colony counts, 1 × 10−2 dilution [5, 14] | Colony counts, 1 × 10−3 dilution [5, 14] | Colony counts, 1 × 10−4 dilution [5, 14] | Colony counts, 1 × 10−5 dilution [5, 14] | Colony counts, 1 × 10−6 dilution [5, 14] | Colony counts, 1 × 10−7 dilution [5, 14] | Colony counts, 0 (no dilution) [5, 15] | Colony counts, 1 × 10−1 dilution [5, 15] | Colony counts, 1 × 10−2 dilution [5, 15] | Colony counts, 1 × 10−3 dilution [5, 15] | Colony counts, 1 × 10−4 dilution [5, 15] | Colony counts, 1 × 10−5 dilution [5, 15] | Colony counts, 1 × 10−6 dilution [5, 15] | Colony counts, 1 × 10−7 dilution [5, 15] | Colony counts, 0 (no dilution) [5, 16] | Colony counts, 1 × 10−1 dilution [5, 16] | Colony counts, 1 × 10−2 dilution [5, 16] | Colony counts, 1 × 10−3 dilution [5, 16] | Colony counts, 1 × 10−4 dilution [5, 16] | Colony counts, 0 (no dilution) [5, 17] | Colony counts, 1 × 10−1 dilution [5, 17] | Colony counts, 1 × 10−2 dilution [5, 17] | Colony counts, 1 × 10−3 dilution [5, 17] | Colony counts, 1 × 10−4 dilution [5, 17] | Colony counts, 1 × 10−5 dilution [5, 17] | Colony counts, 1 × 10−6 dilution [5, 17] | Colony counts, 1 × 10−7 dilution [5, 17]
44.7% and 44.2% and 39.9%: % Viability ([6]; control = 100)
40%-50%: Cell viability ([6]; summary of Table 2)
5 fold: Reduction of bioburden [4]

— patent US11633551B2, “Gaseous nitric oxide delivery system and methods of use” (Hansen Pharmaceutical, LLC, priority 2014, dated 2023)
